Assay results reported in ChEMBL document CHEMBL1806398, “Benzothiazole-based N-(phenylsulfonyl)amides as a novel family of PPARα antagonists” (Bioorg Med Chem Lett, 2011).

Assays:
[1] = biological target: T1, Peroxisome proliferator-activated receptor alpha (Homo sapiens) (UniProt Q07869); test: Agonist activity at PPARalpha ligand binding domain expressed in HEK293 cells co-expressing GAL4 at 150 uM after 18 hrs by dual-luciferase activity based transactivation assay relative to control; assay type: cell-based
T1 sequence (whole entry): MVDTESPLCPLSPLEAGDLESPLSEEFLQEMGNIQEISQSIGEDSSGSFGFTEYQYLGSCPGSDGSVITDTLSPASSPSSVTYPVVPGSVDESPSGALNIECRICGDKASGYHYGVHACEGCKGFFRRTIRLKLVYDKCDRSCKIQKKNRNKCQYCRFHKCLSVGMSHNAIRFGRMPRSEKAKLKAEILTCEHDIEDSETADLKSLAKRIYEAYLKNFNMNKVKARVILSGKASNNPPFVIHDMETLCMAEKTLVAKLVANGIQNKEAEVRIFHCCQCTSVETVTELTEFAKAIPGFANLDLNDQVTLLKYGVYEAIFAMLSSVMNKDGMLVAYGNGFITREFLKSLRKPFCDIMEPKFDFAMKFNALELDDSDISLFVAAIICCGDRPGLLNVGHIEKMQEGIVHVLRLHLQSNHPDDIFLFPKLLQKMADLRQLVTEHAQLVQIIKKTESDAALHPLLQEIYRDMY

[2] = biological target: T2, Peroxisome proliferator-activated receptor alpha (Homo sapiens, UniProt Q07869); test: (§1) Antagonist activity at PPARalpha ligand binding domain expressed in HEK293 cells co-expressing GAL4 assessed as inhibition of GW7647-induced transactivation activity after 18 hrs by dual-luciferase assay; assay type: cell-based
T2 sequence (Q07869 whole entry): T1 sequence (whole entry)

[3] = biological target: T1, Peroxisome proliferator-activated receptor alpha (Homo sapiens); test: Antagonist activity at PPARalpha in human HepG2 cells assessed as inhibition of CPT1A mRNA expression at 150 uM after 48 hrs by RT-PCR analysis relative to control; assay type: functional, cell-based
[4] = biological target: T1, Peroxisome proliferator-activated receptor alpha (Homo sapiens); test: Antagonist activity at PPARalpha in human HepG2 cells assessed as inhibition of GW7647-induced CPT1A mRNA expression at 150 uM after 48 hrs by RT-PCR analysis relative to control; assay type: functional, cell-based
[5] = biological target: T2, Peroxisome proliferator-activated receptor alpha; test: Agonist activity at PPARalpha ligand binding domain expressed in HEK293 cells co-expressing GAL4 after 18 hrs by dual-luciferase activity based transactivation assay; assay type: cell-based
[6] = biological target: T1, Peroxisome proliferator-activated receptor alpha (Homo sapiens); test: Antagonist activity at PPARalpha in human HepG2 cells assessed as inhibition of GW7647-induced CPT1A mRNA expression at 20 uM after 48 hrs by RT-PCR analysis relative to control; assay type: functional, cell-based
[7] = biological target: T1, Peroxisome proliferator-activated receptor alpha (Homo sapiens); test: Antagonist activity at PPARalpha in human HepG2 cells assessed as inhibition of GW7647-induced CPT1A mRNA expression at 2 uM after 48 hrs by RT-PCR analysis relative to control; assay type: functional, cell-based
[8] = biological target: T1, Peroxisome proliferator-activated receptor alpha (Homo sapiens); test: Antagonist activity at PPARalpha ligand binding domain expressed in HEK293 cells co-expressing GAL4 assessed as inhibition of GW7647-induced transactivation activity at 10 uM after 18 hrs by dual-luciferase assay relative to control; assay type: cell-based
[9] = biological target: T1, Peroxisome proliferator-activated receptor alpha (Homo sapiens); test: Antagonist activity at PPARalpha in human HepG2 cells assessed as inhibition of GW7647-induced CPT1A mRNA expression at 0.2 uM after 48 hrs by RT-PCR analysis relative to control; assay type: functional, cell-based
[10] = biological target: T1, Peroxisome proliferator-activated receptor alpha (Homo sapiens); test: Antagonist activity at PPARalpha ligand binding domain expressed in HEK293 cells co-expressing GAL4 assessed as inhibition of transactivation activity at 100 uM after 18 hrs by dual-luciferase assay relative to control; assay type: cell-based
[11] = biological target: T1, Peroxisome proliferator-activated receptor alpha (Homo sapiens); test: Antagonist activity at PPARalpha ligand binding domain expressed in HEK293 cells co-expressing GAL4 assessed as inhibition of GW7647-induced transactivation activity at 1 uM after 18 hrs by dual-luciferase assay relative to control; assay type: cell-based
[12] = biological target: T1, Peroxisome proliferator-activated receptor alpha (Homo sapiens); test: Antagonist activity at PPARalpha ligand binding domain expressed in HEK293 cells co-expressing GAL4 assessed as inhibition of transactivation activity at 10 uM after 18 hrs by dual-luciferase assay relative to control; assay type: cell-based
[13] = biological target: T1, Peroxisome proliferator-activated receptor alpha (Homo sapiens); test: Antagonist activity at PPARalpha ligand binding domain expressed in HEK293 cells co-expressing GAL4 assessed as inhibition of GW7647-induced transactivation activity at 150 uM after 18 hrs by dual-luciferase assay relative to control; assay type: cell-based
[14] = biological target: T1, Peroxisome proliferator-activated receptor alpha (Homo sapiens); test: Antagonist activity at PPARalpha ligand binding domain expressed in HEK293 cells co-expressing GAL4 assessed as inhibition of transactivation activity at 50 uM after 18 hrs by dual-luciferase assay relative to control; assay type: cell-based
[15] = biological target: T1, Peroxisome proliferator-activated receptor alpha (Homo sapiens); test: Antagonist activity at PPARalpha ligand binding domain expressed in HEK293 cells co-expressing GAL4 assessed as inhibition of transactivation activity at 1 uM after 18 hrs by dual-luciferase assay relative to control; assay type: cell-based
[16] = biological target: T1, Peroxisome proliferator-activated receptor alpha (Homo sapiens); test: Antagonist activity at PPARalpha in human HepG2 cells assessed as inhibition of GW7647-induced CPT1A mRNA expression after 48 hrs by RT-PCR analysis relative to control; assay type: functional, cell-based
[17] = biological target: T1, Peroxisome proliferator-activated receptor alpha (Homo sapiens); test: as §1; assay type: cell-based
[18] = biological target: T1, Peroxisome proliferator-activated receptor alpha (Homo sapiens); test: Antagonist activity at PPARalpha ligand binding domain expressed in HEK293 cells co-expressing GAL4 assessed as inhibition of GW7647-induced transactivation activity at 100 uM after 18 hrs by dual-luciferase assay relative to control; assay type: cell-based
[19] = biological target: T1, Peroxisome proliferator-activated receptor alpha (Homo sapiens); test: Antagonist activity at PPARalpha ligand binding domain expressed in HEK293 cells co-expressing GAL4 assessed as inhibition of transactivation activity at 150 uM after 18 hrs by dual-luciferase assay relative to control; assay type: cell-based
[20] = biological target: T1, Peroxisome proliferator-activated receptor alpha (Homo sapiens); test: Antagonist activity at PPARalpha ligand binding domain expressed in HEK293 cells co-expressing GAL4 assessed as inhibition of GW7647-induced transactivation activity at 50 uM after 18 hrs by dual-luciferase assay relative to control; assay type: cell-based

SMILES	fold change (FC) [1]	IC50 [2]	fold change (FC) [3]	fold change (FC) [4]	other results
CC(C)(Oc1ccc(Cl)cc1)C(=O)O	1.6	–	–	–	–
CCCC(Sc1nc2ccc(OCC)cc2s1)C(=O)NS(=O)(=O)c1ccccc1 (racemic)	0.05	31 µM	–	–	–
O=C(NS(=O)(=O)c1ccccc1)C(Sc1nc2cc(Cl)ccc2s1)c1ccccc1 (racemic)	0.01	6.5 µM	0.005	0.005	fold change (FC) [6]: 1.68; fold change (FC) [7]: 2.36; fold change (FC) [8]: 2.14; fold change (FC) [9]: 3.59; fold change (FC) [10]: -0.03; fold change (FC) [11]: 3.8; fold change (FC) [12]: -0.23; fold change (FC) [13]: -0.09; fold change (FC) [14]: -0.03; fold change (FC) [15]: -0.78; inhibition [16]: Dose-dependent effect; inhibition [17]: Dose-dependent effect; fold change (FC) [18]: -0.1; fold change (FC) [19]: -0.01; fold change (FC) [20]: -0.63
CCOc1ccc2nc(SC(C)C(=O)NS(=O)(=O)c3ccccc3)sc2c1 (racemic)	0.89	–	–	–	–

Continued, in another order:

fold change (FC) [1]	IC50 [2]	fold change (FC) [3]	fold change (FC) [4]	SMILES	other results
0.09	22.2 µM	0.248	0.235	CCCC(Sc1nc2cc(Cl)ccc2s1)C(=O)NS(=O)(=O)c1ccccc1 (racemic)	–
0.1	27.9 µM	–	–	CC(C)C(Sc1nc2cc(Cl)ccc2s1)C(=O)NS(=O)(=O)c1ccccc1 (racemic)	–
0.01	19.9 µM	0.005	0.003	CCCCC(Sc1nc2cc(Cl)ccc2s1)C(=O)NS(=O)(=O)c1ccccc1 (racemic)	–
1.49	–	–	–	CCCCCCC(Sc1nc2cc(Cl)ccc2s1)C(=O)NS(=O)(=O)c1ccccc1 (racemic)	EC50 [5]: 50.6 µM
